# Several values for one entry are separate records, joined by “and”; a condition that tells them apart may be missing. Equal entries are not always repeated.
# Test system: 616215-338-R-J1-PDC complex spheroid growth, % test/control
# Experiment: Anticancer human tumor 616215-338-R-J1-PDC patient-derived colon adenocarcinoma cell line growth inhibition [Asc]
# Conditions: for viability, T/C: stronger effect = lower value
# Summary of the method: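 Tumor cells were grown as multicellular spheroids with stromal HUVEC and mesenchymal stem cells and treated singly or in combination. Concentrations fell in half-log steps from the clinical Cmax, or from 10 microM where none was known.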
# [1] = curve of first compound, second compound 0.1 µM
# [2] = curve of first compound, second compound 0.316 µM
# [3] = curve of first compound, second compound 1 µM
# [4] = second compound 0.1 µM, first compound 0.0316 µM
# [5] = second compound 0.1 µM, first compound 0.1 µM
# [6] = second compound 0.316 µM, first compound 0.0316 µM
# [7] = second compound 0.316 µM, first compound 0.1 µM
# [8] = second compound 1 µM, first compound 0.0316 µM
# [9] = second compound 1 µM, first compound 0.1 µM
# 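Also: spheroids exposed to agents for seven days before readout.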
# 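For viability, T/C in this document: 100% = DMSO vehicle control viability.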
structure (smiles),measurement,setting,value
O=C(c1cc(Cc2n[nH]c(=O)c3ccccc23)ccc1F)N1CCN(C(=O)C2CC2)CC1 + CNC(C)C(=O)NC1CN(S(=O)(=O)c2cccc(S(=O)(=O)N3CCC4CCC(C(=O)NC(c5ccccc5)c5ccccc5)N4C(=O)C(NC(=O)C(C)NC)C3)c2)CCC2CCC(C(=O)NC(c3ccccc3)c3ccccc3)N2C1=O,IC50,"curve of first compound, second compound 0.00316 µM",< 31.6 nM
same,IC50,"curve of first compound, second compound 0.01 µM",> 10000 nM
same,IC50,"curve of first compound, second compound 0.0316 µM",> 10000 nM
same,IC50,[1],> 10000 nM
same,IC50,[2],> 10000 nM
same,IC50,[3],> 10000 nM
same,"viability, T/C","second compound 0.00316 µM, first compound 0.0316 µM",8.47%
same,"viability, T/C","second compound 0.00316 µM, first compound 0.1 µM",8.86%
same,"viability, T/C","second compound 0.00316 µM, first compound 0.316 µM",12.9%
same,"viability, T/C","second compound 0.00316 µM, first compound 1 µM",10.3%
same,"viability, T/C","second compound 0.00316 µM, first compound 3.16 µM",8.76%
same,"viability, T/C","second compound 0.00316 µM, first compound 10 µM",7.09%
same,"viability, T/C","second compound 0.01 µM, first compound 0.0316 µM",93.3%
same,"viability, T/C","second compound 0.01 µM, first compound 0.1 µM",88.3%
same,"viability, T/C","second compound 0.01 µM, first compound 0.316 µM",97.2%
same,"viability, T/C","second compound 0.01 µM, first compound 1 µM",95.6%
same,"viability, T/C","second compound 0.01 µM, first compound 3.16 µM",80.8%
same,"viability, T/C","second compound 0.01 µM, first compound 10 µM",76.9%
same,"viability, T/C","second compound 0.0316 µM, first compound 0.0316 µM",103%
same,"viability, T/C","second compound 0.0316 µM, first compound 0.1 µM",91%
same,"viability, T/C","second compound 0.0316 µM, first compound 0.316 µM",102%
same,"viability, T/C","second compound 0.0316 µM, first compound 1 µM",103%
same,"viability, T/C","second compound 0.0316 µM, first compound 3.16 µM",94.9%
same,"viability, T/C","second compound 0.0316 µM, first compound 10 µM",78.1%
same,"viability, T/C",[4],100%
same,"viability, T/C",[5],101%
same,"viability, T/C","second compound 0.1 µM, first compound 0.316 µM",94.2%
same,"viability, T/C","second compound 0.1 µM, first compound 1 µM",95.5%
same,"viability, T/C","second compound 0.1 µM, first compound 3.16 µM",95.2%
same,"viability, T/C","second compound 0.1 µM, first compound 10 µM",78%
same,"viability, T/C",[6],104%
same,"viability, T/C",[7],98%
same,"viability, T/C","second compound 0.316 µM, first compound 0.316 µM",105%
same,"viability, T/C","second compound 0.316 µM, first compound 1 µM",106%
same,"viability, T/C","second compound 0.316 µM, first compound 3.16 µM",100%
same,"viability, T/C","second compound 0.316 µM, first compound 10 µM",69.9%
same,"viability, T/C",[8],102%
same,"viability, T/C",[9],102%
same,"viability, T/C","second compound 1 µM, first compound 0.316 µM",96.2%
same,"viability, T/C","second compound 1 µM, first compound 1 µM",97.1%
same,"viability, T/C","second compound 1 µM, first compound 3.16 µM",94.1%
same,"viability, T/C","second compound 1 µM, first compound 10 µM",80.9%
NC1CCC(NC2CC2c2ccccc2)CC1 (stereo unspecified) + Cc1c(S(C)(=O)=O)c(-c2cc(F)cc(N3CCN(c4ccc(NS(=O)(=O)c5ccc(NC(CCN6CCC(C(=O)OCCCP(=O)(O)O)CC6)CSc6ccccc6)c(S(=O)(=O)C(F)(F)F)c5)cc4)CC3)c2)c(-c2ccc(Cl)cc2)n1C(C)C,IC50,[1],> 100 nM
same,IC50,[2],> 100 nM
same,IC50,[3],> 100 nM
same,IC50,"curve of first compound, second compound 3.16 µM",< 0.316 nM
same,IC50,"curve of first compound, second compound 10 µM",< 0.316 nM
same,"viability, T/C","second compound 0.1 µM, first compound 0.000316 µM",85.7%
same,"viability, T/C","second compound 0.1 µM, first compound 0.001 µM",83%
same,"viability, T/C","second compound 0.1 µM, first compound 0.00316 µM",89%
same,"viability, T/C","second compound 0.1 µM, first compound 0.01 µM",85.8%
same,"viability, T/C",[4],83.2%
same,"viability, T/C",[5],81.7%
same,"viability, T/C","second compound 0.316 µM, first compound 0.000316 µM",86.5%
same,"viability, T/C","second compound 0.316 µM, first compound 0.001 µM",79.6%
same,"viability, T/C","second compound 0.316 µM, first compound 0.00316 µM",78.3%
same,"viability, T/C","second compound 0.316 µM, first compound 0.01 µM",78.7%
same,"viability, T/C",[6],79.5%
same,"viability, T/C",[7],79%
same,"viability, T/C","second compound 1 µM, first compound 0.000316 µM",73.5%
same,"viability, T/C","second compound 1 µM, first compound 0.001 µM",68.1%
same,"viability, T/C","second compound 1 µM, first compound 0.00316 µM",64.8%
same,"viability, T/C","second compound 1 µM, first compound 0.01 µM",62.5%
same,"viability, T/C",[8],61.8%
same,"viability, T/C",[9],60.8%
same,"viability, T/C","second compound 3.16 µM, first compound 0.000316 µM",37.5%
same,"viability, T/C","second compound 3.16 µM, first compound 0.001 µM",40.5%
same,"viability, T/C","second compound 3.16 µM, first compound 0.00316 µM",36.6%
same,"viability, T/C","second compound 3.16 µM, first compound 0.01 µM",32%
same,"viability, T/C","second compound 3.16 µM, first compound 0.0316 µM",31.2%
same,"viability, T/C","second compound 3.16 µM, first compound 0.1 µM",34.7%
same,"viability, T/C","second compound 10 µM, first compound 0.000316 µM",24.5%
same,"viability, T/C","second compound 10 µM, first compound 0.001 µM",22.4%
same,"viability, T/C","second compound 10 µM, first compound 0.00316 µM",21.8%
same,"viability, T/C","second compound 10 µM, first compound 0.01 µM",24%
same,"viability, T/C","second compound 10 µM, first compound 0.0316 µM",20%
same,"viability, T/C","second compound 10 µM, first compound 0.1 µM",21.5%
NC1CCC(NC2CC2c2ccccc2)CC1 (stereo unspecified),"viability, T/C",compound 0.000316 µM,96.5% and 100% and 109%
same,"viability, T/C",compound 0.001 µM,102% (2×) and 97.4%
same,"viability, T/C",compound 0.00316 µM,90.4% and 95.5% and 101%
same,"viability, T/C",compound 0.01 µM,92.3% and 96.8% and 93.5%
same,"viability, T/C",compound 0.0316 µM,91.6% and 91.8% and 99.5%
same,"viability, T/C",compound 0.1 µM,92.8% and 94.4% and 97.4%
same,IC50,curve of compound,> 100 nM
Cc1nc(N2CCC3(CC2)COC(C)C3N)c(CO)nc1Sc1ccnc(N)c1Cl (stereo unspecified),"viability, T/C",compound 0.00949 µM,102% and 94% and 101%
same,"viability, T/C",compound 0.03 µM,90.5% and 98.1% and 102%
same,"viability, T/C",compound 0.0949 µM,104% and 105% and 103%
same,"viability, T/C",compound 0.3 µM,81.2% and 99.7% and 101%
same,"viability, T/C",compound 0.949 µM,48% and 102% (2×)
same,"viability, T/C",compound 3 µM,11.8% and 95.5% and 91.3%
same,IC50,curve of compound,871 nM and > 3000 nM
Cn1ncnc1[C@H]1c2n[nH]c(=O)c3cc(F)cc(c23)N[C@@H]1c1ccc(F)cc1 + CCN1C(C(=O)NC23CCC(C(=O)O)(CC2)CC3)C(c2cccc(Cl)c2F)C2(C(=O)Nc3cc(Cl)ccc32)C12CCCCC2,IC50,"curve of first compound, second compound 0.03 µM",> 100 nM
same,IC50,"curve of first compound, second compound 0.0949 µM",> 100 nM
same,IC50,"curve of first compound, second compound 0.3 µM",> 100 nM
same,IC50,"curve of first compound, second compound 0.949 µM",> 100 nM
same,IC50,"curve of first compound, second compound 3 µM",3.14 nM
same,"viability, T/C","second compound 0.03 µM, first compound 0.000316 µM",107%
same,"viability, T/C","second compound 0.03 µM, first compound 0.001 µM",103%
same,"viability, T/C","second compound 0.03 µM, first compound 0.00316 µM",97.8%
same,"viability, T/C","second compound 0.03 µM, first compound 0.01 µM",105%
same,"viability, T/C","second compound 0.03 µM, first compound 0.0316 µM",92.3%
same,"viability, T/C","second compound 0.03 µM, first compound 0.1 µM",85.5%
same,"viability, T/C","second compound 0.0949 µM, first compound 0.000316 µM",99.2%
same,"viability, T/C","second compound 0.0949 µM, first compound 0.001 µM",95.5%
same,"viability, T/C","second compound 0.0949 µM, first compound 0.00316 µM",89%
same,"viability, T/C","second compound 0.0949 µM, first compound 0.01 µM",85%
same,"viability, T/C","second compound 0.0949 µM, first compound 0.0316 µM",81.5%
same,"viability, T/C","second compound 0.0949 µM, first compound 0.1 µM",75.6%
same,"viability, T/C","second compound 0.3 µM, first compound 0.000316 µM",69.6%
same,"viability, T/C","second compound 0.3 µM, first compound 0.001 µM",70.9%
same,"viability, T/C","second compound 0.3 µM, first compound 0.00316 µM",67.6%
same,"viability, T/C","second compound 0.3 µM, first compound 0.01 µM",56.7%
same,"viability, T/C","second compound 0.3 µM, first compound 0.0316 µM",58.9%
same,"viability, T/C","second compound 0.3 µM, first compound 0.1 µM",61.8%
same,"viability, T/C","second compound 0.949 µM, first compound 0.000316 µM",65.3%
same,"viability, T/C","second compound 0.949 µM, first compound 0.001 µM",66.5%
same,"viability, T/C","second compound 0.949 µM, first compound 0.00316 µM",67.4%
same,"viability, T/C","second compound 0.949 µM, first compound 0.01 µM",56.8%
same,"viability, T/C","second compound 0.949 µM, first compound 0.0316 µM",57.2%
same,"viability, T/C","second compound 0.949 µM, first compound 0.1 µM",61.3%
same,"viability, T/C","second compound 3 µM, first compound 0.000316 µM",50.2%
same,"viability, T/C","second compound 3 µM, first compound 0.001 µM",55.5%
same,"viability, T/C","second compound 3 µM, first compound 0.00316 µM",49.9%
same,"viability, T/C","second compound 3 µM, first compound 0.01 µM",46.1%
same,"viability, T/C","second compound 3 µM, first compound 0.0316 µM",47.5%
same,"viability, T/C","second compound 3 µM, first compound 0.1 µM",48.3%

# — PubChem BioAssay AID1963448 (Molecular Pharmacology Branch, DTP, NCI, 2024)
